{
  "source": "patent US7554012B2",
  "about": "“Plants and plant cells exhibiting resistance to AMPA, and methods for making the same” (priority 1998, dated 2009)",
  "key": {"[1]": {"tested_on": "recombinant cotton line 4416", "experiment": "[^14C]-glyphosate metabolism in cotton line 4416", "assay_type": "in vivo, cotton (Gossypium hirsutum L.)", "conditions": "line 4416 plants; listed as [^14C]-Glyphosate", "procedure": "Coker 312 glyphosate resistant recombinant cotton line 4416 was selected as a glyphosate resistant cotton line after transformation with pMON10149, a triple gene Agrobacterium tumefaciens mediated double border plant transformation vector containing chloroplast targeted EPSPS, GOX, and PhnO, each expressed independently from separate 35S promoters. Several 4416 R3 plants were raised from R2 seed. One leaf of each plantlet at the three or four stage was treated with a mixture of ROUNDUP ULTRA™ commercial herbicide mixture (Lot No. GLP-9701-7428-F) which had been fortified with [^14C]-glyphosate (Code No. C-2251). […] The treatment solution consisted of approximately 38 μL containing 1.60×10^6 dpm with a [^14C]-glyphosate specific activity of 1.713×10^3 dpm/μg glyphosate acid. Three or seven days after topical application the treated leaves were rinsed with water, frozen in liquid nitrogen, fractured with a spatula and then ground using a TEKMAR™ tissuemizer in 10 mL of water. The leaf extracts were adjusted to pH 3.5-4.0 with 1N HCl and approximately 4-8000 dpm were analyzed for the presence of [^14C]-metabolites by HPLC with liquid scintillation vial collection and detection (HPLC/LSC) as described in example 2. The new growth including the meristem and new leaves that emerged following topical application were also extracted and analyzed for [^14C]-metabolites."}, "[2]": {"experiment": "[^14C]-glyphosate in growth medium exposed to light", "quoted_text": "Growth medium to which [^14C]-glyphosate was added was treated to the same conditions as wheat plants, ie, the medium was exposed to incident light intensities which plants received."}, "[3]": {"tested_on": "tobacco lines 33476, 36779, 37235", "experiment": "[^14C]-glyphosate metabolism in R1 tobacco plants", "assay_type": "in vivo", "from_the_text": "Seed from Ro transformation events were obtained after self crossing in growth chamber conditions. Ro seed were cured and planted to generate R1 progeny. Source leaves of R1 progeny at the five leaf stage were exposed to [^14C]-glyphosate by spotting a 2 microliter sample onto each vein (50 microliters of [^14C]-glyphosate Na+ salt, 517,000 dpm/microgram, 0.42 microgram/microliter mixed with 10 microliters of glycerol). Each leaf received several spots depending on the number of veins on that leaf. Three days later 15 additional 2 microliter spots were applied to each leaf. Two weeks later, five 2 microliter spots were applied to each of two leaves on each plant. These were new leaves and were not the older leaves to which glyphosate was initially applied. Five days after this last application, about 300 milligrams of tissue was sampled from two sink leaves on each plant. The samples from each plant were homogenized in separate 1 ml volumes of deionized water, centrifuged at 9,000 RPM in a microcentrifuge, and the aqueous volumes were collected and stored on ice. Extracts were analyzed by HPLC for the presence of [^14C] labeled metabolites as in Example 2. […] In addition, the lack of a bleaching effect in line 36779 after exposure to glyphosate is consistent with the presence of functional GOX and PhnO enzymes and the absence of detectable [^14C]-AMPA."}, "transformed corn callus": {"tested_on": "transformed corn callus", "experiment": "[^14C]-glyphosate metabolism assay in corn callus", "from_the_text": "A [^14C]-glyphosate metabolism assay was used for determining whether transformed corn callus tissues contain functioning forms of these enzymes. The assay was developed to screen large numbers of corn callus samples. Callus was obtained from Monsanto Company and Dekalb Seed Company corn transformation groups. The Monsanto callus samples, individually designated as callus lines “19nn-nn-nn” in Table 16, were produced from HI II×B73 corn embryos. Callus samples were bombarded with complete covalently closed circular recombinant plant transformation vector plasmid DNA or with linear DNA fragments isolated from such plasmids 25-50 days after embryo isolation. Transformed lines were identified 8-14 weeks after bombardment. These lines were sub-cultured on fresh media every 2 weeks and were 5-7 months old when used in the metabolism assay. The Dekalb callus lines OO, OR, OW, OX, and OY were obtained from HI II×AW embryos. All line designations correspond to the recombinant plasmid or linear fragment used for ballistic transformation of callus tissue as noted in the legend to Table 16.\n4.5 mCi of N-phosphono-[^14C]-methylglycine ([^14C]-glyphosate) was obtained from the Monsanto Radiosynthesis group in a 1.5 mM aqueous solution, having a specific radioactivity of 39.4 mCi/mM (5.2×10^5 dpm/microgram). The sample was identified with code number C-2182.2. A stock solution sterilized by filtration through a 0.2-micron Acrodisk (Gelman no. 4192) was prepared by combining 2.5 mL [^14C]-glyphosate (3.3×10^8 dpm) with 2.5 mL of corn callus growth medium (N6 medium) and 5.0 mg of Mon 0818 surfactant. [^14C]-glyphosate in the resulting dose solution was 0.75 mM. The N6 medium was described by Chu et al. (1975) and was prepared using salts and vitamins obtained from Sigma Chemical Company, St. Louis, Mo. Mon 0818 surfactant is ethoxylated tallowamine, the surfactant used in Roundup herbicide. The dose solution was subjected to HPLC analysis as described in Example 2. […] Two additional dose solutions were prepared using these reagents, each of which were scaled three fold to 15 ml volumes based on the preparation method described above.\nUnder aseptic conditions, corn callus samples were transferred to individual wells of sterile 48-well COSTAR™ cell culture clusters (cat. No. 3548). The individual callus samples were not weighed. However, in several cases the total weight of the callus samples in a 48-well plate was determined. Typically, the average weight of individual callus samples was approximately 200-250 mg. In each assay, a nontransformed callus sample, HI II×B73, was included as a control. 50 μL of dose solution containing 3.3×10^6 dpm of [^14C]-glyphosate was added to each callus sample. 48-well plates were sealed with parafilm and placed in a plastic bag containing a wet paper towel to provide a moist atmosphere. Bags were closed and placed in a dark drawer at 25° C. for 10 days. Each callus sample was subsequently transferred to a labeled microcentrifuge tube (VWR, 1.7-mL, cat. No. 20170-620). 1.0 mL of de-ionized water was added to each tube, and the tubes were closed and placed in round 20-tube floating microcentrifuge racks (Nalge cat. no. 5974-1015). These microfuge tubes were floated in boiling water for 30 minutes, shaken using a vortex mixer, and centrifuged for 5 minutes using a Fisher brand microcentrifuge. 120-μL supernatant samples were removed for analysis by HPLC as described below. The samples were injected using a Waters WISP autoinjector."}, "[4]": {"conditions": "FIG. 3, callus transformed with GOX and AMPA acetyltransferase"}, "[5]": {"conditions": "control callus HI II×B73, no inserted genes"}},
  "note": "“And” between values parts separate entries of the source, which are not always exact repeats. Equal values may be shown once.",
  "data": [
    {"substance": "N-phosphono-methyl-glycine [Glyphosate]", "values": [
      {"measurement": "% [^14C] metabolite in Glyphosate Treated Leaf Extract: AMPA", "setting": "[1]", "value": "2.1% and 2.0% and 1.6% and 2.2% and 2.5%"},
      {"measurement": "% [^14C] metabolite in Glyphosate Treated Leaf Extract: N-Acetyl-AMPA", "setting": "[1]", "value": "27-74%"},
      {"measurement": "% [^14C] metabolite in New Growth Extract: AMPA", "setting": "[1]", "value": "0.2% and 0.5% and 2.5%"},
      {"measurement": "% [^14C] metabolite in New Growth Extract: Glyphosate", "setting": "[1]", "value": "greater than 90%"},
      {"measurement": "% [^14C] metabolite in New Growth Extract: N-Acetyl AMPA", "setting": "[1]", "value": "greater than 90%"},
      {"measurement": "Acetyl-[^14C]-AMPA, of summed [^14C] peaks", "setting": "[2]", "value": "2% and 0% and 0.2%"},
      {"measurement": "[^14C]-Glyphosate, of summed [^14C] peaks", "setting": "[2]; same light exposure as plants", "value": "48% and 87% and 60%"},
      {"measurement": "[^14C] labeled metabolites in sink leaf extract", "setting": "[3]; line 33476 (GOX)", "value": "only [^14C]-AMPA"},
      {"measurement": "[^14C] labeled metabolites in sink leaf extract", "setting": "[3]; line 36779", "value": "Only N-acetyl-[^14C]-AMPA"},
      {"measurement": "[^14C] labeled metabolites in sink leaf extract", "setting": "[3]; line 37235", "value": "non-metabolized [^14C]-glyphosate as well as a trace but measurable amount of [^14C]-AMPA"},
      {"measurement": "N-acetyl-[^14C]AMPA, of total observed [^14C]", "setting": "transformed corn callus; [4]", "value": 4.54, "unit": "%"},
      {"measurement": "[^14C] AMPA, of total observed [^14C]", "setting": "transformed corn callus; [4]", "value": 1.71, "unit": "%"},
      {"measurement": "[^14C] glyphosate, of total observed [^14C]", "setting": "transformed corn callus; [4]", "value": 92.5, "unit": "%"},
      {"measurement": "Percent N-Acetyl-[^14C]-AMPA", "setting": "transformed corn callus; callus OR516 transformed with pMON32926", "value": "0.50-4.54%"},
      {"measurement": "Percent N-Acetyl-[^14C]-AMPA", "setting": "transformed corn callus; callus OR516 transformed with pMON32926, listed as [^14C]-glyphosate", "value": 1.91, "unit": "%"},
      {"measurement": "Percent [^14C]-AMPA", "setting": "transformed corn callus; callus line transformed with pMON32571", "value": 2.89, "unit": "%"},
      {"measurement": "Percent N-Acetyl-[^14C]-AMPA", "setting": "transformed corn callus; callus line transformed with pMON32573", "value": 0.39, "unit": "%"},
      {"measurement": "Percent N-Acetyl-[^14C]-AMPA", "setting": "transformed corn callus; callus line transformed with pMON32932", "value": 0.28, "unit": "%"},
      {"measurement": "Percent N-Acetyl-[^14C]-AMPA", "setting": "transformed corn callus; callus line transformed with pMON32938", "value": 0.21, "unit": "%"},
      {"measurement": "Percent [^14C]-AMPA", "setting": "transformed corn callus; callus line transformed with pMON32946", "value": 2.51, "unit": "%"},
      {"measurement": "Percent [^14C]-AMPA", "setting": "transformed corn callus; callus line transformed with pMON32947", "value": 1.99, "unit": "%"},
      {"measurement": "Percent N-Acetyl-[^14C]-AMPA", "setting": "transformed corn callus; callus line transformed with pMON32952", "value": 0.37, "unit": "%"},
      {"measurement": "Percent N-Acetyl-[^14C]-AMPA", "setting": "transformed corn callus; callus lines transformed with pMON32571, listed as [^14C]-glyphosate", "value": "0.22% and 0.25%"},
      {"measurement": "Percent N-Acetyl-[^14C]-AMPA", "setting": "transformed corn callus; callus lines transformed with pMON32931, listed as [^14C]-glyphosate", "value": "0.40% and 0.75% and 0.55%"},
      {"measurement": "Percent [^14C]-AMPA", "setting": "transformed corn callus; callus lines transformed with pMON32936, listed as [^14C]-glyphosate", "value": "2.29% and 3.05% and 2.15% and 2.06%"},
      {"measurement": "Percent [^14C]-AMPA", "setting": "transformed corn callus; callus lines transformed with pMON32938, listed as [^14C]-glyphosate", "value": "2.41% and 2.90%"},
      {"measurement": "Percent N-Acetyl-[^14C]-AMPA", "setting": "transformed corn callus; callus lines transformed with pMON32946, listed as [^14C]-glyphosate", "value": "0.77% and 0.85%"},
      {"measurement": "Percent N-Acetyl-[^14C]-AMPA", "setting": "transformed corn callus; callus lines transformed with pMON32947, listed as [^14C]-glyphosate", "value": "0.60% and 0.71%"},
      {"measurement": "N-acetyl-[^14C]-AMPA produced", "setting": "transformed corn callus; [5]", "value": "no detectable levels"},
      {"measurement": "[^14C]-AMPA produced", "setting": "transformed corn callus; [5]", "value": "only background levels"}
    ]}
  ]
}
